Our source for the CC50, IC50 and EC50 values is ChEMBL document CHEMBL6120951, “Viral Protein Dimerization Quality Control: A Design Strategy for a Potential Viral Inhibitor” (J Med Chem, 2024).

In series [1] the test system is Jurkat. Description: Cytotoxicity against human Jurkat cells assessed as reduction in cell growth incubated for 24 hrs by CellTiter-Glo luminescent cell viability assay. The format is functional.
A short description of series [2]: Inhibition of SARS-CoV-2 MPro using Dabcyl-KTSAVLQSGFRKME-Edans as substrate preincubated for 15 mins followed by substrate addition measured after 30 mins by FRET assay. Also on record: species or system Severe acute respiratory syndrome coronavirus 2.
Series [3] is described as follows: Cytotoxicity against African green monkey Vero cells assessed as reduction in cell viability after 72 hrs by MTT assay. Format: toxicity, cell-based. The following applies: chlorocebus sabaeus.
The test system of series [4] is MT4. The series is described as follows: Cytotoxicity against human MT4 cells assessed as reduction in cell viability incubated for 72 hrs by cell-titer glo assay. Format: functional.
Series [5] has as its system Human immunodeficiency virus 1. Description: Antiviral activity against HIV-1 3B infected in human MT4 cells assessed as reduction in viral replication. The note with it: Human immunodeficiency virus 1, 3B. The format is functional, organism-based.
The test system of series [6] is SARS-CoV-2. The series is described as follows: Antiviral activity against SARS-CoV-2 infected in African green monkey Vero cells assessed as reduction in viral replication. Format: functional, organism-based. The following applies: Severe acute respiratory syndrome coronavirus 2, Vero.

SMILES strings stand for the structures.

As to `Cc1[nH]c2ccccc2c1CC(=O)N[C@@H](Cc1ccccc1)C(=O)N(C)c1ccccc1`, in series [1], the CC50 is above 47 µM.

Take `O=C(O)c1cc(-c2ccc(-c3ccccc3)cc2)nc2ccccc12`: in series [2], inhibition was half-maximal at 0.48 µM (IC50). Further, the CC50 at 72 h in series [3] is above 50 µM.

With `CC(C)Cc1sc(-c2nccs2)nc1C(=O)NCc1ccc(F)cc1`, the CC50 in series [4] stood at 50.4 µM.

As for `N#Cc1ccc(Nc2nc(-c3cccnc3)nc3ccccc23)cc1`, the EC50 in series [5] was 4 µM. In addition, the CC50 in series [1] was above 10 µM.

As for `CC(=O)Nc1ccc(-c2cc(C)c(=O)n(Cc3ccc(Cl)cc3)n2)cc1`, the CC50 in series [4] is above 100 µM.

On to `O=C(CNC(=O)c1ccc(F)cc1)Nc1ccc(Cl)nc1Cl`, for which the CC50 in series [4] is 144 µM.

As for `O=C(Nc1cc(F)c(F)c(F)c1)c1ccc(F)c(S(=O)(=O)N2CCC(O)CC2)c1`, the CC50 in series [4] was 14.5 µM.

For the molecule `CC(C)OCCCNC(=O)c1csc(Nc2cc(F)c(Cl)c(F)c2)n1`, the EC50 in series [6] was 0.11 µM. Besides, the half-maximal cytotoxic concentration (CC50) at 72 h in series [3] is above 100 µM.

Regarding `CC(C)(C#Cc1ccc(-c2ccc(Cl)c3c(NS(C)(=O)=O)nn(CC(F)(F)F)c23)c([C@H](Cc2cc(F)cc(F)c2)NC(=O)Cn2nc(C(F)(F)F)c3c2C(F)(F)[C@@H]2C[C@H]32)n1)S(C)(=O)=O`, the EC50 in series [5] came to 0.000105 µM.

Take `N#Cc1ccc(C(=O)Nc2sc3c(c2C(=O)Nc2ccccc2O)CCCCC3)cc1`: in series [6], the EC50 came out at 0.38 µM. The CC50 at 72 h in series [3] was above 250 µM.

In the case of `O=C(Nc1cccc(Cl)c1)C1C2CCCCC21` (configuration not stated), the CC50 in series [4] was above 100 µM.

On to `CCN1C(=O)C(c2cc(O)cc(-c3cccnc3)c2)C(=O)N(c2ccccc2)c2cc(C(F)(F)F)ccc21` (configuration not stated), for which, in series [5], the EC50 amounted to 0.48 µM.

For `O=C1NC(c2ccc(O)cc2)C2C(c3ccccc3)=NNC12` (configuration not stated), in series [5], the EC50 was 1.8 µM. Also, the half-maximal cytotoxic concentration (CC50) in series [1] is above 43 µM.

For `CC1=C(C(C2=C(C)c3ccccc3C2=O)c2ccc(C)cc2)C(=O)CC(c2ccccc2)C1` (configuration not stated), in series [6], the 50% effective concentration (EC50) amounted to 1.82 µM.

Take `CCc1cc(-c2ccc(C(F)(F)F)o2)n(-c2ccc3c(c2)nc(-c2ccccc2O)n3Cc2ccc(=O)[nH]c2)n1`: in series [5], the EC50 came to 0.11 µM.

Consider `O=C(NC1CCNCC1)c1n[nH]cc1NC(=O)c1c(Cl)cccc1Cl` [AT-7519], for which the EC50 in series [6] amounted to 25 µM.

Take `CCOc1cc2ncc(C#N)c(Nc3ccc(F)c(Cl)c3)c2cc1NC(=O)/C=C/CN(C)C` [PELITINIB]: in series [6], the EC50 was 1.25 µM.
